Drawing on US7482456B2, “8-(3-Biaryl)phenylquinoline phosphodiesterase-4 inhibitors” (Merck Frosst Canada, priority 2003, dated 2009), this text covers IC50 for 11 compounds.

Structures are written as SMILES.

The target in this experiment is T1, human recombinant phosphodiesterase IVa (met-248) (Homo sapiens, UniProt P27815).
T1 construct: human recombinant phosphodiesterase IVa (met-248); made in house; host or cells: baculovirus/Sf-9
T1 sequence (P27815 248-886 limits assumed): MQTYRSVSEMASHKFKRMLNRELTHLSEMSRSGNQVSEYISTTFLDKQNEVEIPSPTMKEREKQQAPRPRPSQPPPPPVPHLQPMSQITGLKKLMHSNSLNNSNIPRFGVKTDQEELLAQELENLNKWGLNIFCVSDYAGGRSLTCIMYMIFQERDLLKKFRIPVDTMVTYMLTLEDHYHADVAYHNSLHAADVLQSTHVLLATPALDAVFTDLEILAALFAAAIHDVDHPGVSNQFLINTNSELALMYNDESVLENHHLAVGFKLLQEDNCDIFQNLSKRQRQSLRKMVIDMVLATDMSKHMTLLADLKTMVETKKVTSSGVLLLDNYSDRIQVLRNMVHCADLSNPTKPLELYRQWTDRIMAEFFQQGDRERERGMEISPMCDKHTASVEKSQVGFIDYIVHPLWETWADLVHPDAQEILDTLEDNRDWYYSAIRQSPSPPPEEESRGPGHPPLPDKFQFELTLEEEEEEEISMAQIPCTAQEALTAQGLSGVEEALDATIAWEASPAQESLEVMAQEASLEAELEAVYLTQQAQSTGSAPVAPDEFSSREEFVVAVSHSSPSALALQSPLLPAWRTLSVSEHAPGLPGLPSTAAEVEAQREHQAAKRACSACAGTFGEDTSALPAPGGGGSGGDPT
The experiment in a line: SPA based PDE activity assay. Type of experiment: biochemical. The conditions noted are these: 100 nM cAMP; purified GST fusion protein of human recombinant PDE IVa (met-248), baculovirus/Sf-9. The procedure: Compounds which inhibit the hydrolysis of cAMP to AMP by the type-IV cAMP-specific phosphodiesterases were screened in a 96-well plate format as follows:
In a 96 well-plate at 30° C. was added the test compound (dissolved in 2 μL DMSO), […] of substrate buffer containing [2,8-^3H] adenosine 3′,5′-cyclic phosphate (cAMP, 100 nM to 50 μM), 10 mM MgCl2, 1 mM EDTA, 50 mM Tris, pH 7.5. The reaction was initiated by the addition of […] of human recombinant PDE4 (the amount was controlled so that ˜10% product was formed in 10 min.). The reaction was stopped after 10 min. by the addition of 1 mg of PDE-SPA beads (Amersham Pharmacia Biotech, Inc., Piscataway, N.J.). The product AMP generated was quantified on a Wallac Microbeta® 96-well plate counter (EG&G Wallac Co., Gaithersburg, Md.). The signal in the absence of enzyme was defined as the background. 100% activity was defined as the signal detected in the presence of enzyme and DMSO with the background subtracted. Percentage of inhibition was calculated accordingly. IC50 value was approximated with a non-linear regression fit using the standard 4-parameter/multiple binding sites equation from a ten point titration.
By IC50 is commonly meant the concentration that inhibits the measured activity by half. In the case of `CC(C)(c1cc(-c2cccc(-c3sc(-c4cccc(Cl)c4)nc3-c3ccc(S(C)(=O)=O)cc3)c2)c2ncccc2c1)S(C)(=O)=O` [Example 1, 8-(3-{2-(3-chlorophenyl)-4-[4-(methylsulfonyl)phenyl]-1,3-thiazol-5-yl}phenyl)-6-[1-methyl-1-(methylsulfonyl)ethyl]quinoline], the IC50 worked out at 0.3 nM.

With `CC(C)(c1cc(-c2cccc(-c3sc(-c4cccc(S(C)(=O)=O)c4)nc3-c3ccc(S(C)(=O)=O)cc3)c2)c2ncccc2c1)S(C)(=O)=O` [Example 41], the half-maximal inhibitory concentration (IC50) was 1 nM.

As for `CC(C)(O)c1cccc(-c2nc(-c3ccc(S(C)(=O)=O)cc3)c(-c3cccc(-c4cc(C(C)(C)S(C)(=O)=O)cc5cccnc45)c3)s2)c1` [Example 69, 2-(3-{5-(3-{6-[1-methyl-1-(methylsulfonyl)ethyl]quinolin-8-yl}phenyl)-4-[4-(methylsulfonyl)phenyl]-1,3-thiazol-2-yl}phenyl)propan-2-ol], the IC50 is 0.6 nM.

As for `CC(C)(O)c1nc(-c2cccc(-c3cc(C(C)(C)S(C)(=O)=O)cc4cccnc34)c2)c(-c2ccc(S(C)(=O)=O)cc2)s1` [Example 78, 2-{4-(3-{6-[1-methyl-1-(methylsulfonyl)ethyl]quinolin-8-yl}phenyl)-5-[4-(methylsulfonyl)phenyl]-1,3-thiazol-2-yl}propan-2-ol], the IC50 was 0.4 nM.

In the case of `CC(O)(c1ccc(Cl)cc1)c1nc(-c2cccc(-c3cc(C(C)(C)S(C)(=O)=O)cc4cccnc34)c2)c(-c2ccc(S(C)(=O)=O)cc2)s1` (centres unmarked) [Example 82, 1-(4-chlorophenyl)-1-{4-(3-{6-[1-methyl-1-(methylsulfonyl)ethyl]quinolin-8-yl}phenyl)-5-[4-(methylsulfonyl)phenyl]-1,3-thiazol-2-yl}ethanol], the IC50 is 3.1 nM.

For `CC(C)(O)c1cccc(-c2nc(-c3ccc(F)c(Cl)c3)c(-c3cccc(-c4cc(C(C)(C)S(C)(=O)=O)cc5cccnc45)c3)s2)c1` [Example 88, 2-{3-[4-(3-chloro-4-fluorophenyl)-5-(3-{6-[1-methyl-1-(methylsulfonyl)ethyl]quinolin-8-yl}phenyl)-1,3-thiazol-2-yl]phenyl}propan-2-ol], the IC50 stood at 1.6 nM.

In the case of `CC(C)(O)c1nc(-c2cccc(-c3cc(C(C)(C)S(C)(=O)=O)cc4cccnc34)c2)c(-c2ccc(Cl)cc2)s1` [Example 94, 2-[5-(4-chlorophenyl)-4-(3-{6-[1-methyl-1-(methylsulfonyl)ethyl]quinolin-8-yl}phenyl)-1,3-thiazol-2-yl]propan-2-ol], the IC50 is 4.3 nM.

For `Cc1noc(-c2cc(-c3cccc(-c4cc(C(C)(C)S(C)(=O)=O)cc5cccnc45)c3)c[n+]([O-])c2)n1` [Example 100, 6-[1-methyl-1-(methylsulfonyl)ethyl]-8-{3-[5-(3-methyl-1,2,4-oxadiazol-5-yl)-1-oxidopyridin-3-yl]phenyl}quinoline], the IC50 came out at 4.1 nM.

Regarding `Cn1nnc(-c2cc(-c3cccc(-c4cc(C(C)(C)S(C)(=O)=O)cc5cccnc45)c3)c[n+]([O-])c2)n1` [Example 115, 6-[1-methyl-1-(methylsulfonyl)ethyl]-8-{3-[5-(2-methyl-2H-tetraazol-5-yl)-1-oxidopyridin-3-yl]phenyl}quinoline], the IC50 stood at 2.2 nM.

On to `CC(C)(O)c1ccc(-c2nc(-c3ccc(S(C)(=O)=O)cc3)c(-c3cccc(-c4cc(C(C)(C)S(C)(=O)=O)cc5cccnc45)c3)s2)cc1` [Example 157, 2-(4-{5-(3-{6-[1-methyl-1-(methylsulfonyl)ethyl]quinolin-8-yl}phenyl)-4-[4-(methylsulfonyl)phenyl]-1,3-thiazol-2-yl}phenyl)propan-2-ol], for which the IC50 turned out to be 1.7 nM.

Regarding `CC(C)(O)c1nc(-c2ccc(S(C)(=O)=O)cc2)c(-c2cccc(-c3cc(C(=O)NC4CC4)cc4cccnc34)c2)s1` [Example 167, N-cyclopropyl-8-(3-{2-(1-hydroxy-1-methylethyl)-4-[4-(methylsulfonyl)phenyl]-1,3-thiazol-5-yl}phenyl)quinoline-6-carboxamide], the IC50 amounted to 0.4 nM.
